The values that follow come from publication PMC5053573, “Structure-Based Design of Tetrahydroisoquinoline-7-carboxamides as Selective Discoidin Domain Receptor 1 (DDR1) Inhibitors” (Journal of Medicinal Chemistry, 2016).

The structures appear in SMILES notation.

The nature of data set [1]: Pharmacokinetics study in SD rats. The note with it: male, Sprague-Dawley, rat, whole blood, iv, 4 mg/kg, read-out: CL (L/hr/kg) in rats (converted). Format: in vivo.
Data set [2] addresses PIK3CB (Homo sapiens, UniProt P42338). Nature of the data set: biochemical. The note with it: read-out: %Ctrl @ 1000nM.
For data set [3], the target named is PIK3CG (Homo sapiens, UniProt P48736). Nature of the data set: biochemical. The note with it: read-out: %Ctrl @ 1000nM.
Data set [4] addresses BMPR1B (Homo sapiens, UniProt O00238). Nature of the data set: biochemical. The settings on record: read-out: %Ctrl @ 1000nM.
The target of data set [5] is ACVR2A (Homo sapiens, UniProt P27037). Nature of the data set: biochemical. The note with it: read-out: %Ctrl @ 1000nM.
Chain of ACVR2A (P27037 whole entry): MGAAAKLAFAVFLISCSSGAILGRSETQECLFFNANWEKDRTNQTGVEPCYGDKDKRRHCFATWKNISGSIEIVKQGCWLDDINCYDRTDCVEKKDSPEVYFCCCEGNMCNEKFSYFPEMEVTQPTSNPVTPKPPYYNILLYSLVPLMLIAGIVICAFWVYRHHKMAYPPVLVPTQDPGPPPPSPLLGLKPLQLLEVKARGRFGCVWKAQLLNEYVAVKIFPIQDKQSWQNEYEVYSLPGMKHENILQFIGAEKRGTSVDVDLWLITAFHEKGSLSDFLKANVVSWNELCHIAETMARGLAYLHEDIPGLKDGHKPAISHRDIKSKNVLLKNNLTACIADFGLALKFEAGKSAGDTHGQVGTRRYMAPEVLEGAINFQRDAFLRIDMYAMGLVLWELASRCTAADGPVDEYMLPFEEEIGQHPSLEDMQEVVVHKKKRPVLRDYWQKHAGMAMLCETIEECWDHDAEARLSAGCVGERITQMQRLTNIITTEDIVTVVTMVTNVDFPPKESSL
Data set [6] deals with CDKL2 (Homo sapiens, UniProt Q92772). The data set can be described thus: biochemical. The note with it: read-out: %Ctrl @ 1000nM.
Chain of CDKL2 (Q92772 whole entry): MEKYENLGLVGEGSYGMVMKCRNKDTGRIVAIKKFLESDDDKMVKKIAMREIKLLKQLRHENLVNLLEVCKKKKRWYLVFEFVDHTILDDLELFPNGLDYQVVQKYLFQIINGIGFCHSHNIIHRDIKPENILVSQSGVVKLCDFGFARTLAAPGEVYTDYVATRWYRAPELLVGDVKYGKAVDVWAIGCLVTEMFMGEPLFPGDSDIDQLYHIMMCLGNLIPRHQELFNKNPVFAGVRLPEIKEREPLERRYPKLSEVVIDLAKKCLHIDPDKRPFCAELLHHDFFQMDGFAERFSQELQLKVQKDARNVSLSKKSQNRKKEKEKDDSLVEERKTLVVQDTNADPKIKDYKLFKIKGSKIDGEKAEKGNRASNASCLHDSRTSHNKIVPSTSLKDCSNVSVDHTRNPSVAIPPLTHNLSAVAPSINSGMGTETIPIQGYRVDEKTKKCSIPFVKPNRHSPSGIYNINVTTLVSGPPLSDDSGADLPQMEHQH
The target of data set [7] is LIMK2 (Homo sapiens, UniProt P53671). The data set can be described thus: biochemical. The settings on record: read-out: %Ctrl @ 1000nM.
Chain of LIMK2 (P53671 whole entry): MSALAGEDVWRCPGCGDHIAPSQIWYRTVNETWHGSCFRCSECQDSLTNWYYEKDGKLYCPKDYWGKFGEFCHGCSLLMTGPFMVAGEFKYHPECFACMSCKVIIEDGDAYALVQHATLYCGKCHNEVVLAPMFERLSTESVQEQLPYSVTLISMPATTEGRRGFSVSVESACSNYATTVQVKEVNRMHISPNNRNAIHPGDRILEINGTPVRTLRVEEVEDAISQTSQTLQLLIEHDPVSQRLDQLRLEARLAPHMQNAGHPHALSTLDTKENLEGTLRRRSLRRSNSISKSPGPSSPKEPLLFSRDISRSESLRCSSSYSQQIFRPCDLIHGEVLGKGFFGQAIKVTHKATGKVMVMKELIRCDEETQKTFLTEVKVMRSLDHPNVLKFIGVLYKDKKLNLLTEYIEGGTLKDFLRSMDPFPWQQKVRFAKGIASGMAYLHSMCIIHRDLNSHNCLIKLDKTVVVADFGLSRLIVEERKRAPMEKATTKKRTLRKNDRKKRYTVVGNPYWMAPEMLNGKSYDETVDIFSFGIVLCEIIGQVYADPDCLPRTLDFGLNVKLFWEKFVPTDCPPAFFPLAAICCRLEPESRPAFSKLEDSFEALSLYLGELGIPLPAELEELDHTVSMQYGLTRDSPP
Data set [8] has as its target BRAF (Homo sapiens, UniProt P15056). Nature of the data set: biochemical. The settings on record: read-out: %Ctrl @ 1000nM.
In data set [9] the target is PKNB(M.tuberculosis) (Mycobacterium tuberculosis, UniProt P9WI81). Nature of the data set: biochemical. The settings on record: read-out: %Ctrl @ 1000nM.
Chain of PKNB(M.tuberculosis) (P9WI81 whole entry, looked up): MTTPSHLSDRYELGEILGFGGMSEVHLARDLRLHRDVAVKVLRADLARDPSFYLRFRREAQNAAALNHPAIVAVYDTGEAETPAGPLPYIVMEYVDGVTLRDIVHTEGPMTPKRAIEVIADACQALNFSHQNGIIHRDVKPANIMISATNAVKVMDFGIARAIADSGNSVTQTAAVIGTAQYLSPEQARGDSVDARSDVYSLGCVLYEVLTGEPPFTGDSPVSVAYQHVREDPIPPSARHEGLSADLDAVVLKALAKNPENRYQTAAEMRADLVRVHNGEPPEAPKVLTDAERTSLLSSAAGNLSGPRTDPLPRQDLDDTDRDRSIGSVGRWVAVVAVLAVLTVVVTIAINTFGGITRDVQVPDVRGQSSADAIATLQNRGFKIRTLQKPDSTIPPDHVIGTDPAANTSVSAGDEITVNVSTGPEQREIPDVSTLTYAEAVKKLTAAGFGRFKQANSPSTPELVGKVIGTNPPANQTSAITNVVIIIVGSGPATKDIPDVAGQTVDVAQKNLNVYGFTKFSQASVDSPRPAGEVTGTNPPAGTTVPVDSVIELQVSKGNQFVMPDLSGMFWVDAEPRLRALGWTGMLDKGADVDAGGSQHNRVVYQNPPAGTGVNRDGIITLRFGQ
Data set [10] concerns the target LTK (Homo sapiens, UniProt P29376). The data set can be described thus: biochemical. The settings on record: competition binding; read-out: %Ctrl @ 1000nM.

Chain of LTK (P29376 whole entry): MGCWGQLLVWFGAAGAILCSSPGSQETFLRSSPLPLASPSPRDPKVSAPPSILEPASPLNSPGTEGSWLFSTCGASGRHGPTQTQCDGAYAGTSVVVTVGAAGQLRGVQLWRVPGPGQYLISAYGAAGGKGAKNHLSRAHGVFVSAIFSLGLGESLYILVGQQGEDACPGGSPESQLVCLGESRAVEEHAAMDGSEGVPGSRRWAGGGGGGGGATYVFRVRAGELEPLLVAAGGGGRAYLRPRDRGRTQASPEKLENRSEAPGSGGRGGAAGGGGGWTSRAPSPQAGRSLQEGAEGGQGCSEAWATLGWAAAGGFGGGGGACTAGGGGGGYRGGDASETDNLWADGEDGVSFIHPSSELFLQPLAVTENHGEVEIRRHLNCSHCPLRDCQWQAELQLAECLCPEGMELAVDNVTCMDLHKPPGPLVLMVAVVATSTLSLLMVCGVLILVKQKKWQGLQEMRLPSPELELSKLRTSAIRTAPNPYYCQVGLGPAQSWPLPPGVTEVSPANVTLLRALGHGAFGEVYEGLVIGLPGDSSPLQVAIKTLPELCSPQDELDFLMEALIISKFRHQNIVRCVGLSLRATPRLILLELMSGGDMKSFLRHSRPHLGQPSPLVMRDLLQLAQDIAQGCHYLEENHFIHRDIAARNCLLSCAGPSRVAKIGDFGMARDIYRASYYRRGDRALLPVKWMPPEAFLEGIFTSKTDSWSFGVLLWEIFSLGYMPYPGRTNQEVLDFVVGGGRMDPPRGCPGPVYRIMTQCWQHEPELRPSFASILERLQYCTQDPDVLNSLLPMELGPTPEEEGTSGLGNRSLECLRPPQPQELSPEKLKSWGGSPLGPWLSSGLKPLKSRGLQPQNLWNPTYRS
Chain of BMPR1B (O00238 whole entry): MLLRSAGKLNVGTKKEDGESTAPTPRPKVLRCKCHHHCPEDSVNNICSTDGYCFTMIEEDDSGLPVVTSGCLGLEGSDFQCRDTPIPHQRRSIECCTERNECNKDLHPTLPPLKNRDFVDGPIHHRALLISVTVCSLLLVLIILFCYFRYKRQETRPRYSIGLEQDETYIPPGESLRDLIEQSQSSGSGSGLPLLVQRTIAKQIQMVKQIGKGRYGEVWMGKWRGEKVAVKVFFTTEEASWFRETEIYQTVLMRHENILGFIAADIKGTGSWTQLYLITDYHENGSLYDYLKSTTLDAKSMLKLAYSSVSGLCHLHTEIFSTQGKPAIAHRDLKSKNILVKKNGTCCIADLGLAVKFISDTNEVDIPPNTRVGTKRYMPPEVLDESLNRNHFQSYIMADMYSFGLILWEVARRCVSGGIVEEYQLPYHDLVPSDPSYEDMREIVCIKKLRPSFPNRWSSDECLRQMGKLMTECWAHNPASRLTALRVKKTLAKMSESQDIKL
Chain of PIK3CB (P42338 whole entry): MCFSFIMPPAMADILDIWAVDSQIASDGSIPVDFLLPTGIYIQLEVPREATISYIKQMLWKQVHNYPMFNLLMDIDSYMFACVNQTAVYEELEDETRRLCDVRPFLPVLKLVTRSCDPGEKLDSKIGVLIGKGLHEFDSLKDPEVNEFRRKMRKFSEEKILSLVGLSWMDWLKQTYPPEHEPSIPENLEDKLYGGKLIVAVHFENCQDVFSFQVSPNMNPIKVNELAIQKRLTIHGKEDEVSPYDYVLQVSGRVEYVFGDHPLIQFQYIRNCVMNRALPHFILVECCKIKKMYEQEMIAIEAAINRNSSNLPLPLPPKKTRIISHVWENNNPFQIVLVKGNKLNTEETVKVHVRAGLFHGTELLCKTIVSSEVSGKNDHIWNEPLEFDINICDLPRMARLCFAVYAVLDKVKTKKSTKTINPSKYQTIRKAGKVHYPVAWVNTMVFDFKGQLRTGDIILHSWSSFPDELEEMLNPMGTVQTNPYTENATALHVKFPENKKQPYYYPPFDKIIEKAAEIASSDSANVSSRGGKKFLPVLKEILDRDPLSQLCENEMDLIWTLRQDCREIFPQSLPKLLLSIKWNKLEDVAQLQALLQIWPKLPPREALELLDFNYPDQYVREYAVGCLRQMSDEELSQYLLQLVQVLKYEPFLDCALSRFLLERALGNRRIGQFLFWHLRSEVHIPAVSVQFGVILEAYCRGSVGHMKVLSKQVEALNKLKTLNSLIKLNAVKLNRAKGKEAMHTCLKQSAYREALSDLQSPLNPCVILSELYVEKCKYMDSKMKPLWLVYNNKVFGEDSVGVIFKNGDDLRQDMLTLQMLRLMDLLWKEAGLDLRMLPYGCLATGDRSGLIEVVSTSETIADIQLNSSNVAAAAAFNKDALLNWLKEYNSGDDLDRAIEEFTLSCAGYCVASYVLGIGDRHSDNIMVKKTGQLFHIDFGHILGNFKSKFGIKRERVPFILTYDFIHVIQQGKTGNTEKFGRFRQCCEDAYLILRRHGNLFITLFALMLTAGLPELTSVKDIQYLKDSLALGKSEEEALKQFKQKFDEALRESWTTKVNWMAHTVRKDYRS

As to `Cc1cn(-c2cc(NC(=O)c3ccc4c(c3)CN(c3cncnc3)C[C@@H]4C)cc(C(F)(F)F)c2)cn1` [Compound 6j], the clearance in [1] is 17.6 L/h/kg. Moreover, the remaining activity at 1 µM in data set [2] is 100%; in [3], 100%; in data set [4], 100%; in data set [5], 98%; in data set [6] it was 93%; in data set [7] it was 100%. In addition, in data set [8], the remaining activity at 1 µM was found to be 96%. Moreover, the figures for the remaining binding at 1 µM in data set [9] and in data set [10] were 100% and 73%, respectively.
